From article PMC11436024, “E-Cyanoacrylamides and 5-Imino Pyrrolones against Trypanosoma cruzi: Activity and Induced Mechanisms of Cell Death” (Tropical Medicine and Infectious Disease, 2024) come the findings set out here.

As a reminder, the IC50 is the concentration that gives 50% inhibition.

The subject of series [1] is L3 larvae of Culex pipiens. In words: Larvicidal (in vivo toxicity) assay against mosquito larvae. On the procedure: The L3 larvae from Culex pipiens, used in the cytotoxicity assay, were cultured at the Laboratorio de Entomología Médica of the Instituto Universitario de Enfermedades Tropicales y Salud Pública de Canarias in Tenerife, Spain.
For this purpose, 3 mL of sterile water with food for 48 h was added to 24-well plates, following WHO guidelines of necessary nutrients. In each well, one L3 larva of Culex pipiens was added, together with different concentrations of the compounds to be tested (IC90 and two times IC90). In addition, negative controls, without treatment and with the maximum amount of DMSO added in the treatments, and positive controls, benznidazole as the reference treatment and triton, previously reported to be toxic to larvae, were added. All experiments were performed in duplicate and repeated on 3 different days, observing larval viability at different times (1, 3, 12, 24, and 48 h after the start of treatment).

The test system of series [2] is epimastigote form of T. cruzi. In words: In vitro epimastigote activity assay (alamarBlue). The series is classed as cell-based, Trypanosoma cruzi strain Y. To be noted: epimastigote form of T. cruzi, 72 h incubation at 26 °C, mean ± standard deviation. On the procedure:
This assay is based on the use of alamarBlue. The alamarBlue reagent contains resazurin, which emits blue fluorescence under normal conditions. However, when the parasites are still alive and in contact with cell metabolism, the reagent is reduced to resorufin, which emits pink fluorescence.
In 96-well plates, serial dilutions of each compound were added with parasites at a concentration of 10^6 cells/mL in a final volume of 200 µL. Finally, 10% alamarBlue reagent was added, with 20 µL per well.
After 72 h of incubation at 26 °C, the plate was introduced into the plate reader and the fluorescence (570 nm excitation, 585 nm emission) of each well was determined using the EnSpire Multimode Plate Reader® (PerkinElmer, Thermo Fischer Scientific, Madrid, Spain). Finally, using a non-linear regression analysis in Graphpad Prism 9.0.0. the inhibitory concentration 50 (IC50) was calculated.
Inhibitory and cytotoxic concentrations (IC50, IC90, and CC50) were determined in duplicate on three different days using non-linear regression [Inhibitor] vs. response variable slope (four parameters) using non-linear regression analysis with 95% confidence, using GraphPad Prism 10.1.1 statistical software. The analysis was developed using Tukey’s test, considering significant values of p < 0.05. ANOVA analysis was also performed using GraphPad Prism 10.1.1.
For orientation: The colour change of resazurin is a common sign of viable cells or microbes.

SMILES strings stand for the structures.

With `N=C1C=CC(=O)N1c1ccccc1` [B], the larval viability result is reported as “Alive” in series [1] (2IC90 (two times IC90) of compound, 1 h); “Alive” in series [1] (2IC90 (two times IC90) of compound, 3 h); “Alive” in series [1] (2IC90 (two times IC90) of compound, 12 h); “Alive” in series [1] (2IC90 (two times IC90) of compound, 24 h); “Alive” in series [1] (2IC90 (two times IC90) of compound, 48 h); “Alive” in series [1] (IC90 of compound, 1 h). The larval viability entry is listed as “Alive” in series [1] (IC90 of compound, 3 h); “Alive” in series [1] (IC90 of compound, 12 h); “Alive” in series [1] (IC90 of compound, 24 h); “Alive” in series [1] (IC90 of compound, 48 h). The IC50 in series [2] (Trypanosoma cruzi, 72 h) is less than 10 µM; in series [2], 6.91 ± 1.33 µM.
